Source: patent publication US10947188B2, “Small molecule ferroptosis inducers” (THE TRUSTEES OF COLUMBIA UNIVERSITY IN THE CITY OF NEW YORK, priority 2016, dated 2021)

System: BJeLR
Experiment: Modulatory profiling: Alamar Blue viability, lethal compound cotreated with death modulator (EC50, AUC)
Format: cell-based, human
Parameters: AUC, modulator BJ.Gd3+ / AUC, modulator BJ.LNAME / AUC, modulator BJ.Lmin / AUC, modulator BJ.3MA / AUC, modulator BJ.ALLN / AUC, modulator BJ.Boc D / AUC, modulator BJ.CHX / AUC, modulator BJ.Co2+ / AUC, modulator BJ.Nec-1 / AUC, modulator BJ.Pepstatin / AUC, modulator BJ.TLCK / AUC, modulator BJ.atoc / AUC, modulator BJ.trolox / AUC, modulator BJ.zVAD: unit not given beside the values
Conditions: BJeLR cells, modulatory profile value (AUC); for AUC, modulator BJ.3MA: lethal compound cotreated with modulator 3MA; for AUC, modulator BJ.ALLN: lethal compound cotreated with modulator ALLN; for AUC, modulator BJ.Boc D: lethal compound cotreated with modulator Boc D; for AUC, modulator BJ.CHX: lethal compound cotreated with modulator CHX; for AUC, modulator BJ.Co2+: lethal compound cotreated with modulator Co2+; for AUC, modulator BJ.DPQ: lethal compound cotreated with modulator DPQ; for AUC, modulator BJ.Gd3+: lethal compound cotreated with modulator Gd3+; for AUC, modulator BJ.LNAME: lethal compound cotreated with modulator LNAME; for AUC, modulator BJ.Lmin/NAD+: lethal compound cotreated with modulator Lmin/NAD+; for AUC, modulator BJ.Lmin: lethal compound cotreated with modulator Lmin; for AUC, modulator BJ.NAD+: lethal compound cotreated with modulator NAD+; for AUC, modulator BJ.NMMA: lethal compound cotreated with modulator NMMA; for AUC, modulator BJ.Nec-1: lethal compound cotreated with modulator Nec-1; for AUC, modulator BJ.Pepstatin: lethal compound cotreated with modulator Pepstatin; for AUC, modulator BJ.TLCK: lethal compound cotreated with modulator TLCK; for AUC, modulator BJ.atoc: lethal compound cotreated with modulator atoc; for AUC, modulator BJ.trolox: lethal compound cotreated with modulator trolox; for AUC, modulator BJ.zVAD: lethal compound cotreated with modulator zVAD

| Compound | AUC, modulator BJ.3MA | AUC, modulator BJ.ALLN | AUC, modulator BJ.Boc D | AUC, modulator BJ.CHX | AUC, modulator BJ.Co2+ | AUC, modulator BJ.DPQ | AUC, modulator BJ.Gd3+ | AUC, modulator BJ.LNAME | AUC, modulator BJ.Lmin/NAD+ | AUC, modulator BJ.Lmin | AUC, modulator BJ.NAD+ | AUC, modulator BJ.NMMA | AUC, modulator BJ.Nec-1 | AUC, modulator BJ.Pepstatin | AUC, modulator BJ.TLCK | AUC, modulator BJ.atoc | AUC, modulator BJ.trolox | AUC, modulator BJ.zVAD |
| --- | --- | --- | --- | --- | --- | --- | --- | --- | --- | --- | --- | --- | --- | --- | --- | --- | --- | --- |
| CC(C)[C@@H]1NC(=O)[C@H](C)OC(=O)[C@@H](C(C)C)NC(=O)[C@@H](C(C)C)OC(=O)[C@H](C(C)C)NC(=O)[C@H](C)OC(=O)[C@@H](C(C)C)NC(=O)[C@@H](C(C)C)OC(=O)[C@H](C(C)C)NC(=O)[C@H](C)OC(=O)[C@@H](C(C)C)NC(=O)[C@@H](C(C)C)OC1=O [Vatinomycin] | 0.03326 | 0.02063 | 0.02046 | 0.3573 | 0.09595 | −0.02201 | −0.0004394 | −0.01323 | 0.1525 | −0.007847 | 0.1101 | −0.02634 | 0.01734 | 0.04946 | 0.006602 | 0.285 | 0.06867 | 0.03769 |
| CC[C@]1(O)C[C@@H]2CN(CCc3c([nH]c4ccccc34)[C@@](C(=O)OC)(c3cc4c(cc3OC)N(C)[C@H]3[C@@](O)(C(=O)OC)[C@H](OC(C)=O)[C@]5(CC)C=CCN6CC[C@]43[C@@H]65)C2)C1 [Vinbiastine] | 0.0131 | −0.07228 | 0.001717 | 0.2328 | 0.1876 | −0.0312 | 0.008351 | −0.0006349 | 0.1715 | 0.06584 | 0.1373 | 0.008107 | −0.06176 | 0.002398 | −0.003672 | 0.1487 | −0.01145 | 0.01552 |
| CC[C@]1(O)C[C@H]2CN(CCc3c([nH]c4ccccc34)[C@@](C(=O)OC)(c3cc4c(cc3OC)N(C=O)[C@H]3[C@@](O)(C(=O)OC)[C@H](OC(C)=O)[C@]5(CC)C=CCN6CC[C@]43[C@@H]65)C2)C1 [Vincristine] | −0.03566 | −0.03171 | −0.005016 | 0.1955 | 0.1806 | −0.03044 | 0.007944 | −0.00717 | 0.1721 | 0.06034 | 0.1255 | −0.003354 | −0.05572 | −0.002521 | −0.01255 | 0.04717 | −0.03305 | 0.01856 |
| CCOc1ccccc1-n1c(C(C)N2CCN(C(=O)COc3ccc(Cl)cc3)CC2)nc2ccccc2c1=O (stereo not drawn) [erastin, reference compound] | 0.09348 | −0.05751 | −0.0006165 | 0.09081 | −0.1704 | −0.005058 | −0.0388 | −0.03971 | 0.1538 | 0.1115 | −0.02334 | −0.05625 | 0.1665 | 0.1892 | 0.0155 | 0.3276 | 0.2492 | −0.005301 |
